Measurements taken from publication PMC8876959, “Comparative Evaluation of Radiochemical and Biological Properties of ^131I- and [^99mTc]Tc(CO)3-Labeled RGD Analogues Planned to Interact with the αvβ3 Integrin Expressed in Glioblastoma” (Pharmaceuticals, 2022).

Experiments:
C6 cells = assay: In vitro specific binding to C6 cells (block with excess non-labeled peptide); type: cell-based, rat; details: 4 h
Protocol: The specific binding of the radiopeptides to C6 cells was evaluated in 12-well adherent plates, containing 2.0 × 10^5 cells per well. For the specific binding study (unblock), supplemented DMEM-F12 medium containing 1.66 nmol of the [^131I]I-GRGDYV or 8.88 nmol of the [^99mTc]Tc(CO) 3-GRGDHV was added in the wells. On the other hand, for the non-specific binding study (block), an excess of 1000× of the respective non-radiolabeled peptide (competitor) was added to the supplemented DMEM-F12 medium containing the radiopeptide in each well. In both cases, the plates were incubated at 37 °C in a humidified atmosphere containing 5% CO2 for 4 h and then, the supernatant was removed. Each well was washed with PBS, which was joined to the respective supernatant. Finally, the cells were removed by trypsinization and the contents were placed in microtubes. Each well was washed again with PBS, which was joined to the respective trypsinized cells. Cells and supernatants were counted in the above-mentioned automatic gamma counter.

[1] = test system: tumor-bearing glioblastoma brain homogenate (model); assay: Binding and internalization in brain homogenate of glioblastoma model rats; design: species or system rat; details: 37 °C, n = 7
Protocol: An aliquot containing 2 × 10^6 C6 cells in supplemented DMEM-F12 culture medium (450 µL) was added to a vial and incubated with 10 nmol of the radiolabeled peptide at 37 °C with gentle agitation. The studies were evaluated at 1, 4 and 24 h (n = 7 for each time point). Then, the vials were centrifuged (604× g for 5 min). The radioactivities of the pellet and supernatant were separately evaluated using an automatic Wizard 3 2480 gamma counter (Perkin Elmer; Norwalk, CT, USA). The percentage of the bound fraction was calculated by Equation (1). (1) % bound fraction=Pellet radioactivity (cpm)/Pellet radioactivity (cpm)+supernatant radioactivity (cpm)×100
In the sequence, a second radioactivity determination was performed. For that, pellets were resuspended using 0.5 mL of acid buffer (0.2 M acetic acid in 0.5 M NaCl solution; pH 2.8) and maintained at room temperature for 5 min to remove the radiolabeled molecule attached to the cell membrane surface. Then, the vials were centrifuged (1677× g for 5 min). The pellet and supernatant were separated and their radioactivities were measured using the above-mentioned automatic gamma counter. The percentage of the internalized fraction of radiopeptides was estimated based on the ratio between the activity contained in the precipitate and the supernatant and calculated by Equation (2):(2) % internalized fraction=Pellet radioactivity (cpm)/Pellet radioactivity (cpm)+supernatant radioactivity (cpm)×100
(§1) Adult male Sprague Dawley rats (280–320 g) were maintained under controlled environmental conditions (12 h light-dark cycle; constant temperature 21 ± 2 °C), with free access to water and food. Tumorigenic glioblastoma cells were implanted in the right frontal cortex, following specific coordinates (referred to bregma): anteroposterior = 1.0 mm; lateral = 3.0 mm; depth = 5.0 mm. An aliquot of culture medium (10 µL) containing 1 × 10^6 C6 cells in suspension was injected slowly (1 µL/min) using a Hamilton syringe positioned on a stereotaxic surgery frame. In the control group, only the culture medium, without cells, was injected. An interval of 20 days after cell inoculation was allowed for tumor development.
Brain homogenates were prepared at the concentration of ~10 mg of wet tissue in 1000 µL of PBS (pH 7.4). Normal brain tissue (control) and tumor-bearing brain tissue (model) were used. A 25 µL aliquot (1.2 MBq/nmol) of each radiopeptide was added to 200 µL of freshly prepared homogenates (n = 7). The homogenates containing the radiolabeled peptides were incubated at 37 °C for 1, 4 and 24 h. Binding and internalization fractions were determined as described in Section 3.11.

[2] = Ex vivo biodistribution in normal (control) rats; design: species or system rat; details: gamma counter, mean ± SEM, n = 3
Protocol: as §1
The ex vivo biodistribution of each radiolabeled peptide (4 MBq; 0.2 mL) was evaluated at 15, 60, and 240 min after IV injection in control and tumor-bearing animals (n = 3 per group, per time point). The molar activities in this study were 0.68 and 16.2 MBq/nmol for the iodine and tricarbonyl-labeled peptides, respectively. Animals were deeply anesthetized and sacrificed at the corresponding biodistribution time point. Brain, spleen, heart, stomach, liver, lungs, kidneys, and blood were collected and weighed. Then, their radioactivities were determined using the above-mentioned automatic gamma counter. The radioactivity of each organ/tissue was evaluated as the percentage of injected dose per gram of organ/tissue (% ID/g), using the same injected dose activity as a standard.

[3] = glioblastoma model brain homogenate, 24 h

**Q.** With [^99mTc]Tc(CO)3-GRGDHV as the substance, how does the “Binding to C6 cells (unblock)” value (C6 cells; 2.0 × 10^5 cells per well, 37 °C, 1.66 nmol [131I]I-GRGDYV or 8.88 nmol [99mTc]Tc(CO)3-GRGDHV, mean ± SD) read?
**A.** 0.61 ± 0.07%

**Q.** What about the “Binding to C6 cells with excess of non-radiolabeled peptide (block)” value (C6 cells; 1000× excess of the respective non-radiolabeled peptide, 37 °C, mean ± SD) of the same substance?
**A.** 0.33 ± 0.04%

**Q.** What about the “Reduction of binding by excess of non-radiolabeled peptide” value (C6 cells; block versus unblock, C6 cells) of the same substance?
**A.** ~ 46%

**Q.** And the Bound fraction ([1]; glioblastoma model brain homogenate (~10 mg/1000 µL PBS pH 7.4), 1 h)?
**A.** ~ 50%

**Q.** And the Internalized fraction ([1]; glioblastoma model brain homogenate, 1 h)?
**A.** ~ 79%

**Q.** And the Bound fraction [1, 3]?
**A.** ~ 78%

**Q.** And the Internalized fraction [1, 3]?
**A.** ~ 98%

**Q.** And the “Ex vivo biodistribution, Blood” value ([2]; 15 min after IV injection)?
**A.** 11.30 ± 0.84 %ID/g

**Q.** And the “Ex vivo biodistribution, Blood” value ([2]; 60 min after IV injection)?
**A.** 9.78 ± 0.52 %ID/g

**Q.** What about the “Ex vivo biodistribution, Blood” value ([2]; 240 min after IV injection) of the same substance?
**A.** 11.12 ± 1.27 %ID/g

**Q.** And the “Ex vivo biodistribution, Brain” value ([2]; 15 min after IV injection)?
**A.** 0.32 ± 0.01 %ID/g

**Q.** And the “Ex vivo biodistribution, Brain” value ([2]; 60 min after IV injection)?
**A.** 0.28 ± 0.03 %ID/g

**Q.** And the “Ex vivo biodistribution, Brain” value ([2]; 240 min after IV injection)?
**A.** 0.60 ± 0.04 %ID/g

**Q.** And the “Ex vivo biodistribution, Heart” value ([2]; 15 min after IV injection)?
**A.** 5.14 ± 0.12 %ID/g

**Q.** And the “Ex vivo biodistribution, Heart” value ([2]; 60 min after IV injection)?
**A.** 4.41 ± 0.23 %ID/g

**Q.** What about the “Ex vivo biodistribution, Heart” value ([2]; 240 min after IV injection) of the same substance?
**A.** 4.84 ± 0.37 %ID/g

**Q.** And the “Ex vivo biodistribution, Kidneys” value ([2]; 15 min after IV injection)?
**A.** 62.73 ± 2.17 %ID/g

**Q.** What about the “Ex vivo biodistribution, Kidneys” value ([2]; 60 min after IV injection) of the same substance?
**A.** 51.04 ± 1.49 %ID/g

**Q.** What about the “Ex vivo biodistribution, Kidneys” value ([2]; 240 min after IV injection) of the same substance?
**A.** 40.17 ± 0.90 %ID/g

**Q.** And the “Ex vivo biodistribution, Liver” value ([2]; 15 min after IV injection)?
**A.** 6.06 ± 0.79 %ID/g

**Q.** What about the “Ex vivo biodistribution, Liver” value ([2]; 60 min after IV injection) of the same substance?
**A.** 9.55 ± 1.34 %ID/g

**Q.** What about the “Ex vivo biodistribution, Liver” value ([2]; 240 min after IV injection) of the same substance?
**A.** 12.26 ± 1.34 %ID/g

**Q.** What about the “Ex vivo biodistribution, Lungs” value ([2]; 15 min after IV injection) of the same substance?
**A.** 7.76 ± 0.75 %ID/g

**Q.** What about the “Ex vivo biodistribution, Lungs” value ([2]; 60 min after IV injection) of the same substance?
**A.** 9.25 ± 1.65 %ID/g

**Q.** What about the “Ex vivo biodistribution, Lungs” value ([2]; 240 min after IV injection) of the same substance?
**A.** 8.59 ± 0.64 %ID/g

**Q.** What about the “Ex vivo biodistribution, Spleen” value ([2]; 15 min after IV injection) of the same substance?
**A.** 3.41 ± 0.41 %ID/g

**Q.** And the “Ex vivo biodistribution, Spleen” value ([2]; 60 min after IV injection)?
**A.** 3.69 ± 0.60 %ID/g

**Q.** And the “Ex vivo biodistribution, Spleen” value ([2]; 240 min after IV injection)?
**A.** 4.93 ± 0.45 %ID/g

**Q.** And the “Ex vivo biodistribution, Stomach” value ([2]; 15 min after IV injection)?
**A.** 3.09 ± 0.77 %ID/g

**Q.** And the “Ex vivo biodistribution, Stomach” value ([2]; 60 min after IV injection)?
**A.** 10.27 ± 0.59 %ID/g

**Q.** And the “Ex vivo biodistribution, Stomach” value ([2]; 240 min after IV injection)?
**A.** 10.78 ± 3.11 %ID/g
